Measurements from patent US6495580B1, “Compounds, compositions and methods for treating or preventing pneumovirus infection and associated diseases” (ViroPharma Incorporated, priority 1998, dated 2002).
Where two headings read alike, the source gives them in different places.

Tests used:
Assay type in all cases: cell-based
goat RSV = assay: Cell culture assay for inhibition of pneumovirus replication, GRSV; conditions: protection from cytopathic effect
Protocol: (§1) The replication of many viruses may be quantitatively assessed in the laboratory in various cell or tissue culture systems. Such in vitro culture methodologies are available and useable by those skilled in the art for the propagation and quantitative measurement of the replication of pneumoviruses. The following procedure was used for the in vitro quantitative measure of RSV replication.
(§2) Using the procedure described in this example, compounds of the present invention were evaluated for their ability to inhibit the replication of the virus in cell culture. By adding compounds at various concentrations to the culture medium, a dose response effect of the compound on virus replication was determined. A useful quantitative measure of the inhibition of RSV replication in this assay is the concentration of the compound at which virus replication in cell culture is inhibited by 50% in comparison to that observed in the absence of the compound (50% Inhibitory Concentration, IC50). In the case of RSV, IC50 values are defined as the concentration of compound that protected 50% of the cell monolayer. from virus-induced cytopathic effect (syncytia formation).
Anti-pneumovirus compounds of the invention were screened for antiviral activity against RSV (strain Long) on cultured HEp2 cells. […] After rinsing and drying the plates, the optical density of the wells was measured at 570 nm (OD570).
To determine IC50 values for the test compounds,the mean value of the OD570 readings of the virus control wells (VC) on a plate was substracted from the OD570 readings of all wells on that plate. The IC50 values were then calculated according to the following formula: […]
where Y represents the mean OD570 reading of the cell control wells (CC) divided by 2; B represents the mean OD570 reading of wells of the compound dilution nearest to and below Y; A represents the mean OD570 reading of wells of the compound dilution nearest to and above Y; L represents the compound concentration at B; and H represents the compound concentration at A. […]

human RSV subtype B = assay: Cell culture assay for inhibition of pneumovirus replication, RSV-B; conditions: protection from cytopathic effect
Protocol: as §1, §2
(§3) Anti-pneumovirus compounds of the invention were screened for antiviral activity against RSV (strain Long) on cultured HEp2 cells. Standard 96-well culture plates were seeded with 4×10^4 HEp2 cells in 200 μL of Minimal Essential Medium with Earles salts (EMEM) supplemented with 10% fetal bovine serum (FBS). Twenty-four to 30 hours later, the cells were infected with a dilution of RSV in Medium 199 (GIBCO/BRL) with 5% FBS that had been titrated to yield>85% destruction of the cell monolayer in 60 hours. After 1 hour at […], compounds were added to wells of the plate in a final DMSO concentration of 0.5% as a series of 10 two-fold dilutions of the compound. Virus control wells (VC, no test compound) and cell culture control wells (CC, no virus, no test compound) were also included on each plate. Plates were incubated in a humidified atmosphere at 37° C. and 5% carbon dioxide. After 60 hours, 100 μL of a 5% solution of glutaraldehyde in water was added to each well, and the wells were incubated at room temperature for 1 hour. The fixative was removed, and the cells were stained with a 0.1% solution of crystal violet in water for 15-30 minutes. After rinsing and drying the plates, the optical density of the wells was measured at 570 nm (OD570).
(§4) To determine IC50 values for the test compounds,the mean value of the OD570 readings of the virus control wells (VC) on a plate was substracted from the OD570 readings of all wells on that plate. The IC50 values were then calculated according to the following formula:
(§5) IC50=[(Y—B)/(A—B)]×(H—L)+L
(§6) where Y represents the mean OD570 reading of the cell control wells (CC) divided by 2; B represents the mean OD570 reading of wells of the compound dilution nearest to and below Y; A represents the mean OD570 reading of wells of the compound dilution nearest to and above Y; L represents the compound concentration at B; and H represents the compound concentration at A.
(§7) A similar assay is useful for various strains of human RSV, including subtype A and subtype B viruses, as well as other pneumoviruses.

ovine RSV = assay: Cell culture assay for inhibition of pneumovirus replication, ORSV; conditions: protection from cytopathic effect
Protocol: as §1, §2, §3, §4, §5, §6, §7

human RSV subtype A = assay: Cell culture assay for inhibition of pneumovirus replication (protection from virus-induced cytopathic effect), RSV-A
Protocol: as §1, §2, §3, §4, §5, §6, §7

bovine RSV = assay: Cell culture assay for inhibition of pneumovirus replication, BRSV; conditions: protection from cytopathic effect
Protocol: as §1, §2, §3, §4, §5, §6, §7

normal cells = assay: MTT cytotoxicity assay; conditions: highest compound concentration giving optical density ≧75% of control, 68 hours incubation
Protocol: This assay measures cell viability, and therefore cytotoxicity, by quantitatively detecting the in situ reduction of 3-(4,5-dimethylthiazol-2-yl)-2,5-diphenyltetrazolium bromide (MTT) by viable cells. Cells are seeded in 96-well plates in DMEM containing 5% FBS at a density of 4×10^3 cells per well. After incubation for 4 hours at 37° C. and 5% CO2, 2-fold serial dilutions of compound in 1% DMSO (or solvent alone) are added to quadruplicate wells and the plates are incubated for an additional 68 hours at 37° C. and 5% CO2, which is equivalent to 3 to 4 cell doublings. The culture medium is removed, and the cells are treated with 1 mg/ml of MTT in phosphate-buffered saline, pH 7.2 for 4 hours at 37° C. and 5% CO2. After removal of the unreduced MTT, the reduced blue formazan crystals produced by the viable cells are solubilized by the addition of 0.04N HCl in isopropanol. The optical density at 570 nm (OD570) of each well is read using a suitable microplate reader. Cell viability is expressed as the percentage of optical density for compound-treated cells relative to the optical density of solvent alone-treated control wells. The highest compound concentration resulting in an optical density of≧75% of the control is represented as the cellular cytotoxicity value (CC75).

[1] = Activity against human RSV subtype A (Table 2), values marked 2: protection achieved only 70-90% at highest concentrations tested, read-out: IC50
[2] = human RSV subtype A, concentration protecting 50% of cell monolayer from virus-induced cytopathic effect, HEp2 cells, 60 hours, read-out: IC50 RSV-A
[3] = human respiratory syncytial virus

IC50 (human RSV subtype B)	IC50 (human RSV subtype A; [1])	IC50 (human RSV subtype A; [2])	IC50 (bovine RSV)	IC50 (human RSV subtype B; [3])	IC50 (ovine RSV; [3])	IC50 (human RSV subtype A; human respiratory syncytial virus, HEp-2, human RSV subtype A, concentration protecting 50% of cell monolayer from virus-induced cytopathic effect, HEp2 cells, 60 hours, read-out: IC50 RSV-A)	IC50 (human RSV subtype A; human respiratory syncytial virus, Activity against human RSV subtype A (Table 2), values marked 2: protection achieved only 70-90% at highest concentrations tested, read-out: IC50)	IC50 (bovine RSV; Bovine orthopneumovirus)	Structure (SMILES)	IC50 (goat RSV)	IC50 (ovine RSV)	CC75 (normal cells)
8 nM	1 nM	1 nM	1 nM	–	–	–	–	–	COc1ccc(C(c2ccc(C=Nn3nnnc3N)cc2O)c2ccc(C=Nn3nnnc3N)cc2O)cc1 (stereo not drawn) [Example 2, 5,5′-Bis[1-(((5-amino-1H-tetrazolyl)imino)methyl)]-4″-methoxyphenyl-2,2′-benzylidenebisphenol]	–	–	>150000 nM
460 nM	50 nM	50 nM	10 nM	–	–	–	–	–	Nc1ncnn1N=Cc1ccc(O)c(C(c2ccc(O)cc2)c2cc(C=Nn3ncnc3N)ccc2O)c1 (stereo not drawn) [Example 3, 5,5′-Bis[1-(((5-amino-1H-1,2,4 triazolyl)imino)methyl)]-2,2′, 4″t-methylidyne trisphenol]	–	170 nM	12500 nM
150 nM	110 nM	110 nM	270 nM	–	–	–	–	–	Nc1nncn1N=Cc1ccc(O)c(C(c2ccc(O)cc2)c2cc(C=Nn3cnnc3N)ccc2O)c1 (stereo not drawn) [Example 4, 5,5′-Bis[4-(((3-amino-4H-1,2,4-triazolyl)imino)methyl)]-2,2′,4″-methylidyne trisphenol]	–	–	18800 nM
1900 nM	90 nM	90 nM	1700 nM	–	–	–	–	–	Nc1nnn(N=Cc2ccc(C(c3ccc(O)cc3)c3ccc(C=Nn4nnc(N)n4)cc3O)c(O)c2)n1 (stereo not drawn) [Example 5, 5,5′-Bis[2-(((5-amino-2H-tetrazolyl)imino)methyl)]-2,2′,4″-methylidynetrisphenol]	–	1200 nM	>50000 nM
–	1 nM	1 nM	–	–	–	–	–	–	Nc1nnnn1N=Cc1ccc(C(c2ccccc2)c2ccc(C=Nn3nnnc3N)cc2O)c(O)c1 (stereo not drawn) [Example 7, 5,5′-Bis[1-(((5-amino-1H-tetrazolyl)imino)methyl)]-2,2′-benzylidenebisphenol]	–	–	>6300 nM
47300 nM	370 nM	370 nM	16200 nM	–	–	–	–	–	Nc1nnnn1N=Cc1ccc(O)c(Cc2cc(C=Nn3nnnc3N)ccc2O)c1 [Example 8]	–	–	9400 nM
–	–	–	–	17700 nM	15500 nM	24300 nM	24300 nM	7500 nM	NC(=O)c1ncn([C@@H]2O[C@H](CO)[C@@H](O)[C@H]2O)n1 [Ribavirin, 1-beta-D-ribofuranosyl-1H-1,2,4-triazole-3-carboxamide, reference compound]	3300 nM	–	9400 nM

Structure (SMILES)	IC50 (human RSV subtype B)	IC50 (human RSV subtype A; [1])	IC50 (human RSV subtype A; [2])	IC50 (bovine RSV)	IC50 (human RSV subtype B; [3])	IC50 (ovine RSV; [3])	IC50 (human RSV subtype A; human respiratory syncytial virus, HEp-2, human RSV subtype A, concentration protecting 50% of cell monolayer from virus-induced cytopathic effect, HEp2 cells, 60 hours, read-out: IC50 RSV-A)	IC50 (human RSV subtype A; human respiratory syncytial virus, Activity against human RSV subtype A (Table 2), values marked 2: protection achieved only 70-90% at highest concentrations tested, read-out: IC50)	IC50 (bovine RSV; Bovine orthopneumovirus)	IC50 (goat RSV)	IC50 (ovine RSV)	CC75 (normal cells)
Nc1nnnn1N=Cc1ccc(O)c(C(c2ccc(O)cc2)c2cc(C=Nn3nnnc3N)ccc2O)c1 (stereo not drawn) [Example 1, 5,5′-Bis[1-(((5-amino-1H-tetrazolyl)imino)methyl)]2,2′,4″-methylidynetrisphenol]	8 nM	1 nM	1 nM	3 nM	–	–	–	–	–	1 nM	2 nM	>12500 nM
Cc1nnnn1/N=C/c1ccc(O)c(C(c2ccc(O)cc2)c2cc(/C=N/n3nnnc3C)ccc2O)c1 [Example 6, 5,5′-Bis[1-(((5-methyl-1H-tetrazolyl)imino)methyl)]-2,2′,4″-methylidynetrisphenol]	2 nM	1 nM	1 nM	1 nM	–	–	–	–	–	1 nM	1 nM	3100 nM
